Measured values as given in article PMC8228174, “In Vitro Characterization of Guanylyl Cyclase BdPepR2 from Brachypodium distachyon Identified through a Motif-Based Approach” (International Journal of Molecular Sciences, 2021).

B1: BdPepR2 (Brachypodium distachyon) (protein)
chain: MPGRLSAKRVSLRSLDSTEELPEDMTYEDILRATDNWSEKYVIGKGRHGTVYRTDCKLGKQWAVKTVDLSQCKFPIEMKILNTVKHRNIVRMAGYYIRGNVGLILYEYMPEGTLFELLHERKPQVALGWMARHQIALGVAQGLSYLHQDCVPMIVHRDVKSSNILMDVELVPKLTDFGMGKIVGDEDSDATVSVIVGTLGYIAPEHGYSTRLSEKSDVYSYGVVLLELLCRKMPVDSAFGDGVDIVTWMRSNLKQADHCSVMSCLDEEIVYWPEDEQAKALHLLDLAISCTEVACQLRPSMREVVNVLVRMDK
notes: full length 1146 aa; pGEX-6P-2, E. coli BL21(DE3)pLysS; GST tag cut off with PreScission protease

Key:
BdPepR2 [1] = molecular target: T1, BdPepR2 (Brachypodium distachyon, UniProt A0A2K2CYK2); test: Kinase-Glo plus luminescent kinase assay; assay type: biochemical; settings: 1 µM cGMP suppresses kinase activity; 100 μM ATP, Histone Type III-S, 5 mM MgCl2 and 5 mM MnCl2, 1 mM DTT, 25 mM Tris/HCl pH 7.5, 30 °C; extent only in figure
T1 construct: gene LOC100834510; full length 1146 aa; pGEX-6P-2, E. coli BL21(DE3)pLysS; GST tag cut off with PreScission protease

BdPepR2 [2] = molecular target: T2, BdPepR2 (Brachypodium distachyon, UniProt A0A2K2CYK2, M1083A); test: Kinase-Glo plus luminescent kinase assay; assay type: biochemical; settings: 1 µM cGMP suppresses kinase activity; 100 μM ATP, Histone Type III-S, 5 mM MgCl2 and 5 mM MnCl2, 1 mM DTT, 25 mM Tris/HCl pH 7.5, 30 °C; extent only in figure
T2 construct: gene LOC100834510; full length 1146 aa; pGEX-6P-2, E. coli BL21(DE3)pLysS; GST tag cut off with PreScission protease
T2 sequence (A0A2K2CYK2 entry or part of it M1083A): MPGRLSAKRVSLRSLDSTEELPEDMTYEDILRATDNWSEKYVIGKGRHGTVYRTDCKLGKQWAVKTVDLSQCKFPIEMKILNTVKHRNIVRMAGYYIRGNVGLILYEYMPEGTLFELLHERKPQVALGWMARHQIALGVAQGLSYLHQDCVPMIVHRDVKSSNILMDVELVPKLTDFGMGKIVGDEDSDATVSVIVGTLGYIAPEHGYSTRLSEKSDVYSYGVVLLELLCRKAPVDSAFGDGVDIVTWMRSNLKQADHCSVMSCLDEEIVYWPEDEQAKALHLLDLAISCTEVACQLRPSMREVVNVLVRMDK

BdPepR2 [3] = molecular target: T1, BdPepR2; test: Kinase-Glo plus luminescent kinase assay; assay type: biochemical; settings: 1 µM cGMP suppresses kinase activity; 100 μM ATP, Histone Type III-S, 5 mM MgCl2 and 5 mM MnCl2, 1 mM DTT, 25 mM Tris/HCl pH 7.5, 30 °C; extent only in figure; remark: listed apart in the source
Target sequence in this assay (A0A2K2CYK2 entry or part of it M1083R): as the sequence (A0A2K2CYK2 entry or part of it M1083A) above, with A233R counted along it

[4] = substrate: Nc1nc2c(ncn2[C@@H]2O[C@H](COP(=O)(O)OP(=O)(O)OP(=O)(O)O)[C@@H](O)[C@H]2O)c(=O)[nH]1; test: guanylyl cyclase assay, cGMP by LC-MS/MS; assay type: biochemical, Brachypodium distachyon; settings: 5 mM MnCl2, 50 mM Tris/HCl pH 7.5, 30 °C, 15 min, GTP 0.5-2 mM, GC centre

Molecule | Kinase-Glo plus luminescent kinase assay (BdPepR2 [1]) | Kinase-Glo plus luminescent kinase assay (BdPepR2 [2]) | Kinase-Glo plus luminescent kinase assay (BdPepR2 [3]) | Km [4] [µM]
Nc1nc2c(ncn2[C@@H]2O[C@@H]3COP(=O)(O)O[C@H]3[C@H]2O)c(=O)[nH]1 [cGMP] | only the product of GC activity, cGMP, statistically significantly suppress kinase activity of BdPepR2 | kinase activity of BdPepR2, BdPepR2M1066A, and BdPepR2M1066R is suppressed by GTP and cGMP | kinase activity of BdPepR2, BdPepR2M1066A, and BdPepR2M1066R is suppressed by GTP and cGMP | –
B1 | – | – | – | 1189
